Laboratory results published in publication PMC7927014, “Novel Small Molecule Hsp90/Cdc37 Interface Inhibitors Indirectly Target K-Ras-Signaling” (Cancers, 2021).

Test system: H-RasG12V nanoclustering
Assay: H-RasG12V nanoclustering-FRET (FLIM-FRET) in HEK cells
Type: cell-based
Details: 24 h, conglobatin A 2 μM, salinomycin 1.3 μM, CAY10585 10 μM
Protocol: In total, 80,000 HEK cells were seeded in 12-well plates containing sterilized 16-mm coverslips and 1 mL medium. The next day, the cells were transfected using jetPRIME or FuGENE HD transfection reagent. For the donor fluorophore-only samples, the cells were transfected with 500 ng mGFP-tagged RasG12V plasmid. For the nanoclustering-FRET pair samples, the cells were transfected with both the donor and acceptor constructs, i.e., pmGFP- and pmCherry- RasG12V at a plasmid ratio of 1:3, respectively, and a total of 800 ng plasmids. The next day, the cells were treated with either 0.1% DMSO vehicle control or the indicated concentrations of compounds diluted in DMEM or RPMI medium for 24 h. For the gene silencing studies, the cells were transfected with the indicated amounts of siRNAs, together with the FRET pair constructs. The plasmids and siRNA were diluted in the same jetPRIME transfection buffer, followed by the addition of jetPRIME. After 48 h of transfection, the cells were fixed in 4% paraformaldehyde for 10 to 15 min, before being mounted onto slides with Mowiol 4–88 (cat. no. 81381, Sigma-Aldrich). The lifetime of the mGFP donor fluorophore was measured using a fluorescence microscope (Zeiss AXIO Observer D1) equipped with a fluorescence lifetime imaging attachment (Lambert Instruments), as described previously in detail. The apparent FRET efficiency (Eapp) was calculated as Eapp = (1 − τDA/τD) × 100%, with the measured fluorescence lifetimes τDA of the FRET sample and the τD of the donor-only sample.

`C/C1=C\[C@H](C)C[C@H](C)[C@H](Cc2cnco2)OC(=O)/C(C)=C/[C@H](C)C[C@H](C)[C@H](Cc2cnco2)OC1=O` [conglobatin A, reference compound] was tested, and the “H-RasG12V nanoclustering-FRET” value was “not H-RasG12V-nanoclustering”.
